Test results as given in publication PMC7669869, “AdipoR1/AdipoR2 dual agonist recovers nonalcoholic steatohepatitis and related fibrosis via endoplasmic reticulum-mitochondria axis” (Nature Communications, 2020).
Non-standard residues stand in square brackets, D forms with d. Residues, ends and D or L forms follow the SMILES beside them. Nva = CCC[C@H](N)C(=O)O

Columns and labels:
[1] = Serum stability assay (RP-HPLC); type: in vitro ADME; details: for Fraction of peptide remaining, Supplementary Figure 5: mouse serum
Method: The stability of candidate peptides was investigated following procedure. […] Ice-cold acetonitrile was added to terminate the reaction. Vortex and stand for 1 min, deionized water with 1% TFA was added to the mixture to further terminate the reaction. Mixtures were then centrifuged (13,000g, 10 min) to obtain the supernatant. RP-HPLC-MS was applied to analysis the content of candidate peptides. The serum stability of candidate peptides was represented as the retention rate of each peptide.

HFD induced NASH mice [2] = experiment: HFD mice: oral glucose tolerance test (OGTT); type: in vivo, mouse; details: JT003 500 μg kg−1, in words
Method: Fasting blood glucose was measured using OneTouch UltraVue Blood Glucose Meter and test strips (Johnson&Johnson, USA) from tail nicks. After HFD fed for 14 weeks and JT003 treated for 2 weeks, oral glucose tolerance tests were performed on 8 h fasted mice. 0.5 g ml^−1 D-glucose solution (Sigma-Aldrich, USA) were oral injected to mice (2 g kg^−1 of bodyweight), blood glucose level was recorded at baseline, 15, 30, 60, 120 min

HFD induced NASH mice [3] = experiment: HFD mice: insulin tolerance test (ITT); type: in vivo, mouse; details: JT003 500 μg kg−1, in words
Method: For insulin tolerance test, one week after OGTT assay, 6 h fasted mice were treated with JT003, and the baseline blood glucose level was measured. An hour later, 0.25 U kg^−1 insulin (Novolin R, Denmark) were intraperitoneal injection to mice, blood glucose level was measured at 15, 30, 45, 60 min

[4] = tested on: AdipoR1 and AdipoR2 in LX2 cells; experiment: RNA interference (AdipoR1/AdipoR2 siRNA) in LX2: PPARα, PPARγ mRNA and protein; type: cell-based, human; details: JT003 48 h, in words
Method: AdipoR1 and AdipoR2 siRNA as well as mock siRNA were chemically synthesized (GenePharma, China) and transfected into 60–70% confluent HepG2 and LX2 cells using Lipofectamine 3000 (ThermoFisher Scientific, USA). Dilution of siRNA and Lipofectamine 3000 reagents as well as the transfection of cells were performed following the manufacturer’s protocol. For HepG2 cell model, 5E5 cells were plated in 6-well plates and transfected with 5 μL of 20 μM stock siRNA. At 48 h following transfection, the cells were processed for 0.25 mM PA and/or 200 μM JT003 treated for another 24 h. BSA was used as the negative control. […]
Liver total RNA was extracted by using Trizol reagent following the manufacture’s instruction (TransGen Biotech, China). The concentration of RNA was measured by Nanodrop 2000 (ThermoFisher Scientific, USA). cDNA was transcribed from 10ug total RNA with First Strand cDNA synthesis Super Mix (TransGen Biotech, China). […] Reference gene β-actin was used for data normalization. mRNA expression was analyzed with specific primers listed in Supplementary Table 2.
Total protein was isolated from cells or liver samples using RIPA lysis buffer (50.0 mM Tris-HCl (pH = 8.0), 150.0 mM NaCl, 0.02% NaN3, 0.1% SDS, 1% NP-40, 0.5% deoxysodium cholate, 1 mM EDTA, […]). The protein concentration was quantified with BCA kit (Pierce, ThermoFisher Scientific, USA). […]

[5] = tested on: liver protein expression of HFD induced NASH mice; experiment: HFD mice: liver western blot; type: in vivo, mouse; details: JT003 500 μg kg−1, in words
Method: The NASH model was conducted with feeding a HFD for 16 weeks combine with a MCD diet (Methionine/Choline Deficient Diet, Medicience, China) in the last 4 weeks. Mice administered a MCS diet (Methionine/Choline Sufficient Diet, Medicience, China) serves as control group. NAFLD or NASH mice treated with JT003 for 4 weeks were used to evaluate the pharmacological effects (n = 6; 500 μg kg^−1; daily intraperitoneal injection). Food and water were provided ad libitum. The body weight of mice was examined every 3 days. The diet was renewed every 7 days. JT003 was diluted in PBS.
Total protein was isolated from cells or liver samples using RIPA lysis buffer (50.0 mM Tris-HCl (pH = 8.0), 150.0 mM NaCl, 0.02% NaN3, 0.1% SDS, 1% NP-40, 0.5% deoxysodium cholate, 1 mM EDTA, […]). The protein concentration was quantified with BCA kit (Pierce, ThermoFisher Scientific, USA). Thirty micrograms protein were separated by 10 or 12% sodium dodecyl sulfate-polyacrylamide gel electrophoresis depending on the band of target protein, then transferred onto equilibrated polyvinylidene difluoride membrane (PVDF, Immobilon®-PSQ transfer membranes, Merck Millipore, Germany). Membranes were incubated with primary antibodies overnight at 4 °C. Specific antibodies were listed in Supplementary Table 3. After incubation with the secondary antibody, proteins were detected by enhanced chemiluminescence (Glarity^TM Western ECL Substrate, Bio-Rad, USA) and the signals were recorded and quantified with Tanon-Image Software (Shanghai, China). Reference antibody GAPDH were used for data normalization.

SMILES: CCC[C@H](NC(=O)[C@@H]1CCCN1)C(=O)N[C@@H](CC(C)C)C(=O)N[C@@H](Cc1ccc(O)cc1)C(=O)N[C@@H](Cc1ccc(O)cc1)C(=O)N[C@@H](Cc1ccccc1)C(=O)N[C@@H](C)C(N)=O [JT003] (H-P[Nva]LYYFA-NH2)
- Fraction of peptide remaining, Supplementary Figure 5 ([1]; time 0 (unit not given), replicate 1): 0.9904
- Fraction of peptide remaining, Supplementary Figure 5 ([1]; time 0 (unit not given), replicate 2): 1.127
- Fraction of peptide remaining, Supplementary Figure 5 ([1]; time 0 (unit not given), replicate 3): 0.9633
- Fraction of peptide remaining, Supplementary Figure 5 ([1]; time 1 (unit not given), replicate 2): 0.7303
- Fraction of peptide remaining, Supplementary Figure 5 ([1]; time 1 (unit not given), replicate 3): 0.7063
- Fraction of peptide remaining, Supplementary Figure 5 ([1]; time 2 (unit not given), replicate 1): 0.4963
- Fraction of peptide remaining, Supplementary Figure 5 ([1]; time 2 (unit not given), replicate 2): 0.5281
- Fraction of peptide remaining, Supplementary Figure 5 ([1]; time 2 (unit not given), replicate 3): 0.4921
- Fraction of peptide remaining, Supplementary Figure 5 ([1]; time 3 (unit not given), replicate 1): 0.4291
- Fraction of peptide remaining, Supplementary Figure 5 ([1]; time 3 (unit not given), replicate 2): 0.4706
- Fraction of peptide remaining, Supplementary Figure 5 ([1]; time 3 (unit not given), replicate 3): 0.4115
- Fraction of peptide remaining, Supplementary Figure 5 ([1]; time 4 (unit not given), replicate 1): 0.3431
- Fraction of peptide remaining, Supplementary Figure 5 ([1]; time 4 (unit not given), replicate 2): 0.3616
- Fraction of peptide remaining, Supplementary Figure 5 ([1]; time 4 (unit not given), replicate 3): 0.3877
- Fraction of peptide remaining, Supplementary Figure 5 ([1]; time 5 (unit not given), replicate 1): 0.4378
- Fraction of peptide remaining, Supplementary Figure 5 ([1]; time 5 (unit not given), replicate 2): 0.3169
- Fraction of peptide remaining, Supplementary Figure 5 ([1]; time 5 (unit not given), replicate 3): 0.3694
- Fraction of peptide remaining, Supplementary Figure 5 ([1]; time 6 (unit not given), replicate 1): 0.3549
- Fraction of peptide remaining, Supplementary Figure 5 ([1]; time 6 (unit not given), replicate 2): 0.2659
- Fraction of peptide remaining, Supplementary Figure 5 ([1]; time 6 (unit not given), replicate 3): 0.2904
- Fraction of peptide remaining, Supplementary Figure 5 ([1]; time 8 (unit not given), replicate 2): 0.272
- Fraction of peptide remaining, Supplementary Figure 5 ([1]; time 8 (unit not given), replicate 3): 0.2915
- Fraction of peptide remaining, Supplementary Figure 5 ([1]; time 12 (unit not given), replicate 2): 0.1256
- Fraction of peptide remaining, Supplementary Figure 5 ([1]; time 12 (unit not given), replicate 3): 0.2003
- remaining at 12 h, 5 mM ([1]; mouse, 5 mM peptide, 37 °C, 12 h, triplicate, mean, read-out: retention rate after incubation in serum): ~22%
- HFD-induced insulin resistance, oral glucose tolerance test (HFD induced NASH mice [2]): obviously ameliorated
- HFD-induced insulin resistance, insulin tolerance test (HFD induced NASH mice [3]): obviously ameliorated
- effect of AdipoR1 and AdipoR2 siRNA on PPARα level induced by JT003 [4]: reduced the increase of the PPARα level induced by JT003
- PI3K and Akt phosphorylation in liver tissue [5]: increased
- AMPK and PPARα signaling (western blotting) ([5]; liver): activated apparently
- expression of downstream factor PPARγ ([5]; liver): inhibited
- phosphorylation of PERK and its downstream eIF2α and JNK ([5]; liver): decreased notably
